# Source: patent US9958439B2, “Carbohydrate detection” (RICHTER LIFE SCIENCE DEVELOPMENT AB, priority 2012, dated 2018)
# Like-named read-outs stand apart in the source and are kept apart here.
# Experiments:
# [1] = for RFU change (Correlation analysis) / RFU change (Signal deviation with increasing [Carbohydrate]) / λmax change: 3 μM probe; for RFU change (Correlation analysis): probe-specific excitation λ, emission 545 nm; for RFU change (Signal deviation with increasing [Carbohydrate]) / λmax change: spectral analysis, Excitation 300-500, Emission 545; for carbohydrate can be detected and/or differentiated by the LCO: conclusion from change in signal magnitude and/or shift in λmax; for Gradient Parameters (gradient of regression line) / Linear relationship / Quality of Gradient: linear regression
# Experimental: (§1) The excitation spectrum of the probe was analyzed for wavelengths 300-500 nm with emission read at 545 nm.
# (§2) 3 μM of each probe was applied to serial two fold dilutions of the insoluble carbohydrate. Respective probes were excited at wavelengths unique to each probe (specified in figure), and emission was read at 545 nm.
# (§3) Serial dilutions of carbohydrate suspensions were prepared in dH2O. Concentrations ranging from 10 to 0.039 mg/ml was used for β-1,3-glucan, cellulose and chitin, whereas 5 to 0.019 mg/ml was used for sodium alginate, glucose, amylose, glycogen, cellulobiose, heparin, chondroitin sulfate A. 3 μM of each LCO probe was added to 1 ml aliquots of each concentration of carbohydrate, after which 100 μl was dispensed in triplicates into 96 well plates. Excitation spectra were collected by exciting the sample from 300 to 500 nm and detecting emission at 545 nm. Detection of carbohydrate is concluded when there is a reproducible change in λmax and/or RFU intensity with reference to the negative control. Data from three concentrations, as well as the negative control are shown for each carbohydrate as specified in respective figure.
# (§4) The excitation wavelength (emission detected at 545 nm) selected for each LCO is either (1) the λmax, or (2) the excitation wavelength which suffers the lowest background. A linear regression analysis is performed to determine the relationship between the carbohydrate concentration and RFU.
# [2] = Experimental: 3 μM of each probe was applied to serial two fold dilutions of the insoluble carbohydrate of which the concentration shown here are 5 mg/ml (_.), 2.5 mg/ml (. . . ), 1.25 mg/ml (__) and 0 mg/ml (_). The excitation spectrum of the probe was analyzed for wavelengths 300-500 nm with emission read at 545 nm.
# as §2, §3, §4
# [3] = for RFU change (Correlation analysis): probe-specific excitation λ, emission 545 nm; for Gradient Parameters (gradient of regression line) / Quality of Gradient: linear regression
# Experimental: (§5) 3 μM of each probe was applied to serial two fold dilutions of the carbohydrate of which the concentration shown here are 5 mg/ml (_.), 2.5 mg/ml (. . . ) 1.25 mg/ml (__) and 0 mg/ml (_). The excitation spectrum of the probe was analyzed for wavelengths 300-500 nm with emission read at 545 nm.
# (§6) 3 μM of each probe was applied to serial two fold dilutions of the carbohydrate. Respective probes were excited at wavelengths unique to each probe (specified in figure), and emission was read at 545 nm.
# as §3, §4
# [4] = remark: listed apart in the source
# Experimental: as §1, §6, §3, §4
# [5] = for RFU change (Correlation analysis): probe-specific excitation λ, emission 545 nm; for carbohydrate can be detected and/or differentiated by the LCO: conclusion from change in signal magnitude and/or shift in λmax; for Gradient Parameters (gradient of regression line) / Linear relationship / Quality of Gradient: linear regression
# Experimental: 3 μM of each probe was applied to serial two fold dilutions of the carbohydrate of which the concentration shown here are 5 mg/ml (_.), 2.5 mg/ml (. . . ), 1.25 mg/ml (__) and 0 mg/ml (_). The excitation spectrum of the probe was analyzed for wavelengths 300-500 nm with emission read at 545 nm.
# as §6, §3, §4
# [6] = remark: listed apart in the source
# Experimental: as §5
# 3 μM of each probe was applied to serial two fold dilutions of the carbohydrate. Respective probes were excited at wavelengths unique to each probe (specified in figure), and emission was read at 545 nm. […] The mean increase in signal (_) with [Glucose] and the fitted regression line (__) is shown.
# as §3, §4
# [7] = β-1,3-glucan concentration vs RFU
# [8] = sodium alginate concentration vs RFU, linear regression
# [9] = Cellulobiose 5-0.019 mg/ml, 3 μM probe, spectral analysis, Excitation 300-500, Emission 545
# [10] = cellulobiose concentration vs RFU
# [11] = Chondroitin Sulfate A 5-0.019 mg/ml, 3 μM probe, spectral analysis, Excitation 300-500, Emission 545
# [12] = Chondroitin Sulfate A concentration vs RFU, linear regression
# [13] = Glycogen 5-0.019 mg/ml, 3 μM probe, spectral analysis, Excitation 300-500, Emission 545
# [14] = glucose concentration vs RFU, linear regression
smiles,measurement,setting,value
"Cl.Cl.N=C(N)NCCC[C@H](NC(=O)Cc1cc(-c2cccs2)sc1-c1ccc(-c2sc(-c3cccs3)cc2CC(=O)N[C@@H](CCCNC(=N)N)C(=O)O)s1)C(=O)O [pHTA-Arg, penta Hydrogen Thiophene Acetic acid Arginine]",RFU change (Correlation analysis),[1]; Cellulose 10-[…],Increase
same,RFU change (Signal deviation with increasing [Carbohydrate]),[1]; Cellulose 10-[…],Increase
same,λmax change,[1]; Cellulose 10-[…],Redshift
same,carbohydrate can be detected and/or differentiated by the LCO,[1]; Cellulose,can be detected and/or differentiated
same,RFU change (Correlation analysis),[1]; Chitin 10-[…],Increases
same,RFU change (Signal deviation with increasing [Carbohydrate]),[1]; Chitin 10-[…],Increases
same,λmax change,[1]; Chitin 10-[…],Redshift
same,carbohydrate can be detected and/or differentiated by the LCO,[1]; Chitin,can be detected and/or differentiated
same,Gradient Parameters (gradient of regression line),[1]; cellulose concentration vs RFU,194.0 ± 29.9
same,Linear relationship,[1]; cellulose concentration vs RFU,Significant
same,Quality of Gradient,[1]; cellulose concentration vs RFU,Positive
same,Gradient Parameters (gradient of regression line),[1]; chitin concentration vs RFU,338.2 ± 19.4
same,Linear relationship,[1]; chitin concentration vs RFU,Significant
same,Quality of Gradient,[1]; chitin concentration vs RFU,Positive
same,Sensitivity,[1]; to cellulose,Yes
same,Sensitivity,[1]; to chitin,Yes
same,Sensitivity,"[1]; to β-1,3-glucan",Yes
same,carbohydrate can be detected and/or differentiated by the LCO,"[1]; β-1,3-Glucan",can be detected and/or differentiated
same,RFU change (Correlation analysis),"[1]; β-1,3-glucan 10-[…]",Increase
same,RFU change (Signal deviation with increasing [Carbohydrate]),"[1]; β-1,3-glucan 10-[…]",Increase
same,Gradient Parameters (gradient of regression line),[1]; [7],119.1 ± 16.69
same,Quality of Gradient,[1]; [7],Positive
same,RFU change (Correlation analysis),"[2]; Sodium alginate 5-0.019 mg/ml, 3 μM probe, probe-specific excitation λ, emission 545 nm",Increases
same,RFU change (Signal deviation with increasing [Carbohydrate]),"[2]; Sodium alginate 5-0.019 mg/ml, 3 μM probe, spectral analysis, Excitation 300-500, Emission 545",Increases
same,carbohydrate can be detected and/or differentiated by the LCO,"[2]; Sodium alginate, conclusion from change in signal magnitude and/or shift in λmax",can be detected and/or differentiated
same,Gradient Parameters (gradient of regression line),[2]; [8],78.6 ± 18.6
same,Linear relationship,[2]; [8],Significant
same,Quality of Gradient,[2]; [8],Positive
same,Sensitivity,[2]; to sodium alginate,Yes
same,RFU change (Correlation analysis),"[3]; Amylose 5-0.019 mg/ml, 3 μM probe",Unclear
same,RFU change (Signal deviation with increasing [Carbohydrate]),"[3]; Amylose 5-0.019 mg/ml, 3 μM probe, spectral analysis, Excitation 300-500, Emission 545",Unclear
same,RFU change (Correlation analysis),"[3]; Cellulobiose 5-0.019 mg/ml, 3 μM probe",Unclear
same,RFU change (Signal deviation with increasing [Carbohydrate]),[3]; [9],Unclear
same,λmax change,[3]; [9],No change
same,Gradient Parameters (gradient of regression line),[3]; amylose concentration vs RFU,−28.4 ± 21.6
same,Quality of Gradient,[3]; amylose concentration vs RFU,Horizontal
same,Gradient Parameters (gradient of regression line),[3]; [10],−1.30 ± 12.9
same,Quality of Gradient,[3]; [10],Horizontal
same,Sensitivity,[3]; to amylose,No
same,Sensitivity,[3]; to cellulobiose,No
same,RFU change (Correlation analysis),"[4]; Chondroitin Sulfate A 5-0.019 mg/ml, 3 μM probe, probe-specific excitation λ, emission 545 nm",Increases
same,RFU change (Signal deviation with increasing [Carbohydrate]),[4]; [11],Increases
same,λmax change,[4]; [11],No change
same,Gradient Parameters (gradient of regression line),[4]; [12],143.4 ± 10.01
same,Linear relationship,[4]; [12],Significant
same,Quality of Gradient,[4]; [12],Positive
same,carbohydrate can be detected and/or differentiated by the LCO,"[4]; Chondroitin sulfate A, conclusion from change in signal magnitude and/or shift in λmax",can be detected and/or differentiated
same,Sensitivity,[4]; to Chondroitin Sulfate A,Yes
same,RFU change (Correlation analysis),"[5]; Glycogen 5-0.019 mg/ml, 3 μM probe",Increases
same,RFU change (Signal deviation with increasing [Carbohydrate]),[5]; [13],Increases
same,λmax change,[5]; [13],Redshift
same,carbohydrate can be detected and/or differentiated by the LCO,[5]; Glycogen,can be detected and/or differentiated
same,RFU change (Correlation analysis),"[5]; Heparin 5-0.019 mg/ml, 3 μM probe",Increases
same,RFU change (Signal deviation with increasing [Carbohydrate]),"[5]; Heparin 5-0.019 mg/ml, 3 μM probe, spectral analysis, Excitation 300-500, Emission 545",Increases
same,carbohydrate can be detected and/or differentiated by the LCO,[5]; Heparin,can be detected and/or differentiated
same,Gradient Parameters (gradient of regression line),[5]; glycogen concentration vs RFU,72.8 ± 13.4
same,Linear relationship,[5]; glycogen concentration vs RFU,Significant
same,Quality of Gradient,[5]; glycogen concentration vs RFU,Positive
same,Gradient Parameters (gradient of regression line),[5]; heparin concentration vs RFU,29.3 ± 8.6
same,Linear relationship,[5]; heparin concentration vs RFU,Significant
same,Quality of Gradient,[5]; heparin concentration vs RFU,Positive
same,Sensitivity,[5]; to glycogen,Yes
same,Sensitivity,[5]; to heparin,Yes
same,RFU change (Correlation analysis),"[6]; Glucose 5-0.019 mg/ml, 3 μM probe, probe-specific excitation λ, emission 545 nm",Unclear
same,RFU change (Signal deviation with increasing [Carbohydrate]),"[6]; Glucose 5-0.019 mg/ml, 3 μM probe, spectral analysis, Excitation 300-500, Emission 545",Increases
same,Gradient Parameters (gradient of regression line),[6]; [14],17.9 ± 38.1
same,Quality of Gradient,[6]; [14],Horizontal
same,Sensitivity,[6]; to glucose,No
